Results on 35 molecules are retold here after US11078168B2, “Substituted N-hydroxyamidinoheterocycles as modulators of indoleamine 2,3-dioxygenase” (PHENEX DISCOVERY VERWALTUNGS-GMBH, priority 2016, dated 2021).

Bounds are passed on as bounds.

For this test, the target named is T1, Indoleamine 2,3-dioxygenase (Homo sapiens, UniProt P14902).
T1 construct: endogenous in cells; host or cells: SKOV-3 (ATCC HTB-77), stimulated with interferon gamma
T1 sequence (P14902 whole entry): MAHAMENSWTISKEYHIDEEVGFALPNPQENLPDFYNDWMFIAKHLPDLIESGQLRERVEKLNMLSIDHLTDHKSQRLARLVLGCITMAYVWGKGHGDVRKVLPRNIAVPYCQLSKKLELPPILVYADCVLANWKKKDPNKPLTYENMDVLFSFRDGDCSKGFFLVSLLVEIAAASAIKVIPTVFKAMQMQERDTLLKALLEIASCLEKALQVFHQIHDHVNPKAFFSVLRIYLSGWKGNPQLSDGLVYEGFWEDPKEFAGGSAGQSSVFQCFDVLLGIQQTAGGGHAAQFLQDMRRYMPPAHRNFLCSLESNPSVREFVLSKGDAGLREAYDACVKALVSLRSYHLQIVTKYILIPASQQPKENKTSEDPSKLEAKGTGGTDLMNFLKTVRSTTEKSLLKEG
The experiment in a line: SKOV-3 cellular Indoleamine 2,3-dioxygenase assay. The note with it: SKOV-3 cells, 50 ng/ml Interferon gamma, 100 μM L-Tryptophan, 24 hours, N-Formylkynurenin fluorescence detection; read-out: cell based activity. Put shortly:
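SKOV-3 cells stimulated with 50 ng/ml interferon gamma, exposed to compound dilutions with L-tryptophan at 100 µM final for 24 h at 37 °C. N-formylkynurenine detected by 200 mM 3-methylpiperidine, 65 °C for 20 min, fluorescence ex 405/em 535 nm.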
For the molecule `O=C(NCCOc1nonc1C(=NO)Nc1ccc(F)c(Cl)c1)N1C[C@@H](O)[C@@H](O)C1` [Example 18, (3S,4R)—N-(2-((4-(N-(3-Chloro-4-fluorophenyl)-N′-hydroxycarbamimidoyl)-1,2,5-oxadiazol-3-yl)oxy)ethyl)-3,4-dihydroxypyrrolidine-1-carboxamide], the IC50 was 100 to 1000 nM.
Take `CS(=O)(=O)CCOc1nonc1C(=NO)Nc1ccc(F)c(Cl)c1` [Example 20, N-(3-Chloro-4-fluorophenyl)-N′-hydroxy-4-(2-(methylsulfonyl)ethoxy)-1,2,5-oxadiazole-3-carboximidamide]: the IC50 was above 1000 nM.
As for `CS(=N)(=O)NCCOc1nonc1C(=NO)Nc1ccc(F)c(Cl)c1` (centres unmarked) [Example 21, N-(3-Chloro-4-fluorophenyl)-N-hydroxy-4-(2-(methylsulfonoamidimidamido)ethoxy)-1,2,5-oxadiazole-3-carboximidamide], the figure is 100 to 1000 nM; as for `COc1nonc1C(=NO)Nc1cccc(CCCl)c1` [Example 22, N-(3-(2-Chloroethyl)phenyl)-N′-hydroxy-4-methoxy-1,2,5-oxadiazole-3-carboximidamide], above 1000 nM.
Take `CS(=O)(=O)NCCSc1nonc1/C(=N/O)Nc1ccc(F)c(Br)c1` [Example 100, N-(3-Bromo-4-fluorophenyl)-N′-hydroxy-4-((2-(methylsulfonamido)ethyl)thio)-1,2,5-oxadiazole-3-carboximidamide]: the IC50 was below 100 nM.
As for `NS(=O)(=O)NCCSc1nonc1/C(=N/O)Nc1ccc(F)c(Br)c1` [Example 101, N-(3-Bromo-4-fluorophenyl)-N′-hydroxy-4-((2-(sulfamoylamino)ethyl)thio)-1,2,5-oxadiazole-3-carboximidamide], the figure is below 100 nM.
As for `Nc1c(NCCSc2nonc2C(=NO)Nc2ccc(F)c(Cl)c2)c(=O)c1=O` [Example 102, 4-((2-((2-Amino-3,4-dioxocyclobut-1-en-1-yl)amino)ethyl)thio)—N-(3-chloro-4-fluorophenyl)-N′-hydroxy-1,2,5-oxadiazole-3-carboximidamide], the figure is below 100 nM.
The value for `ON=C(Nc1ccc(F)c(Cl)c1)c1nonc1SCc1ccccc1` [Example 103, 4-(Benzylthio)—N-(3-chloro-4-fluorophenyl)-N′-hydroxy-1,2,5-oxadiazole-3-carboximidamide] was 100 to 1000 nM.
For `CSc1nonc1/C(=N/O)Nc1ccc(F)c(Br)c1` [Example 103/1, N-(3-bromo-4-fluorophenyl)-N′-hydroxy-4-(methylthio)-1,2,5-oxadiazole-3-carboximidamide], the IC50 is below 100 nM.
As for `ON=C(Nc1ccc(F)c(Br)c1)c1nonc1SCC(F)(F)F` [Example 103/2], the figure is below 100 nM; as for `ON=C(Nc1ccc(F)c(Br)c1)c1nonc1SC1CC1` [Example 103/3], below 100 nM.
In the case of `O=S(=O)(Cc1ccccc1)c1nonc1C(=NO)Nc1ccc(F)c(Cl)c1` [Example 104, 4-(Benzylsulfonyl)-N-(3-chloro-4-fluorophenyl)-N′-hydroxy-1,2,5-oxadiazole-3-carboximidamide], the IC50 is above 1000 nM.
The value for `C[S+]([O-])c1nonc1C(=NO)Nc1ccc(F)c(Br)c1` (centres unmarked) [Example 105, N-(3-Bromo-4-fluorophenyl)-N′-hydroxy-4-(methylsulfinyl)-1,2,5-oxadiazole-3-carboximidamide] was 100 to 1000 nM; that for `CS(=N)(=O)c1nonc1C(=NO)Nc1ccc(F)c(Br)c1` (centres unmarked) [Example 106, N-(3-Bromo-4-fluorophenyl)-N′-hydroxy-4-(S-methylsulfonimidoyl)-1,2,5-oxadiazole-3-carboximidamide] was above 1000 nM.
Turning to `O=C(NCCSc1nonc1C(=NO)Nc1ccc(F)c(C(F)F)c1)C(O)CO` (centres unmarked) [Example 107, N-(2-((4-(N-(3-(Difluoromethyl)-4-fluorophenyl)-N′-hydroxycarbamimidoyl)-1,2,5-oxadiazol-3-yl)thio)ethyl)-2,3-dihydroxypropanamide], the IC50 is below 100 nM.
For `CC1(O)CN(CCSc2nonc2C(=NO)Nc2ccc(F)c(C(F)F)c2)C1` [Example 108, N-(3-(Difluoromethyl)-4-fluorophenyl)-N′-hydroxy-4-((2-(3-hydroxy-3-methylazetidin-1-yl)ethyl)thio)-1,2,5-oxadiazole-3-carboximidamide], the IC50 is below 100 nM.
As for `Nc1c(NCC[S+]([O-])c2nonc2C(=NO)Nc2ccc(F)c(Cl)c2)c(=O)c1=O` (centres unmarked) [Example 109, 4-((2-((2-Amino-3,4-dioxocyclobut-1-en-1-yl)amino)ethyl)sulfinyl)-N-(3-chloro-4-fluorophenyl)-N′-hydroxy-1,2,5-oxadiazole-3-carboximidamide], the figure is 100 to 1000 nM.
The value for `Nc1nnc(NCCSc2nonc2C(=NO)Nc2ccc(F)c(C(F)F)c2)[nH]1` [Example 110, 4-((2-((5-Amino-4H-1,2,4-triazol-3-yl)amino)ethyl)thio)—N-(3-(difluoromethyl)-4-fluorophenyl)-N′-hydroxy-1,2,5-oxadiazole-3-carboximidamide] was 100 to 1000 nM; that for `Cc1nnc(NCCSc2nonc2C(=NO)Nc2ccc(F)c(C(F)F)c2)o1` [Example 111, N-(3-(Difluoromethyl)-4-fluorophenyl)-N′-hydroxy-4-((2-((5-methyl-1,3,4-oxadiazol-2-yl)amino)ethyl)thio)-1,2,5-oxadiazole-3-carboximidamide] was below 100 nM; that for `NS(=O)(=O)NCCSc1nonc1C(=NO)Nc1cccc(C(F)F)c1` [Example 112, N-(3-(Difluoromethyl)phenyl)-N′-hydroxy-4-((2-(sulfamoylamino)ethyl)thio)-1,2,5-oxadiazole-3-carboximidamide] was below 100 nM.
As for `NS(=O)(=O)NCCSc1nonc1C(=NO)Nc1ccnc(C(F)(F)F)c1` [Example 112/1, N′—Hydroxy-4-((2-(sulfamoylamino)ethyl)thio)—N-(2-(trifluoromethyl)pyridin-4-yl)-1,2,5-oxadiazole-3-carboximidamide], the figure is 100 to 1000 nM; as for `NC(=O)C(=O)NCCSc1nonc1C(=NO)Nc1ccc(F)c(Cl)c1` [Example 116, N^1-(2-((4-(N-(3-Chloro-4-fluorophenyl)-N′-hydroxycarbamimidoyl)-1,2,5-oxadiazol-3-yl)thio)ethyl)oxalamide], below 100 nM; as for `O=C(NCCSc1nonc1C(=NO)Nc1ccc(F)c(Cl)c1)c1nnn[nH]1` [Example 117, N-(2-((4-(N-(3-Chloro-4-fluorophenyl)-N′-hydroxycarbamimidoyl)-1,2,5-oxadiazol-3-yl)thio)ethyl)-1H-tetrazole-5-carboxamide], 100 to 1000 nM.
As to `NC(=O)C(F)(F)C(=O)NCCSc1nonc1C(=NO)Nc1ccc(F)c(C(F)F)c1` [Example 118], the IC50 was below 100 nM.
The value for `NC(=O)CC(=O)NCCSc1nonc1C(=NO)Nc1ccc(F)c(C(F)F)c1` [Example 119] was below 100 nM.
The value for `CS(=N)(=O)NCCSc1nonc1C(=NO)Nc1ccc(F)c(Cl)c1` (centres unmarked) [Example 120] was below 100 nM; that for `CS(=O)(=O)Nc1ccc(C(=O)NCCSc2nonc2C(=NO)Nc2ccc(F)c(Cl)c2)cn1` [Example 121, N-(2-((4-(N-(3-Chloro-4-fluorophenyl)-N′-hydroxycarbamimidoyl)-1,2,5-oxadiazol-3-yl)thio)ethyl)-6-(methylsulfonamido)nicotinamide] was 100 to 1000 nM; that for `CS(=N)(=O)c1ccc(C(=O)NCCSc2nonc2C(=NO)Nc2ccc(F)c(C(F)F)c2)cc1` (centres unmarked) [Example 122, N-(2-((4-(N-(3-(Difluoromethyl)-4-fluorophenyl)-N′-hydroxycarbamimidoyl)-1,2,5-oxadiazol-3-yl)thio)ethyl)-4-(S-methylsulfonimidoyl)benzamide] was below 100 nM.
On to `O=C(NCCSc1nonc1C(=NO)Nc1ccc(F)c(Cl)c1)C1(O)CNC1` [Example 123, N-(2-((4-(N-(3-Chloro-4-fluorophenyl)-N′-hydroxycarbamimidoyl)-1,2,5-oxadiazol-3-yl)thio)ethyl)-3-hydroxyazetidine-3-carboxamide], for which the IC50 lay in the range of 100 to 1000 nM.
The value for `CCN1CC(O)(C(=O)NCCSc2nonc2C(=NO)Nc2ccc(F)c(C(F)(F)F)c2)C1` [Example 124, 1-Ethyl-N-(2-((4-(N-(4-fluoro-3-(trifluoromethyl)phenyl)-N′-hydroxycarbamimidoyl)-1,2,5-oxadiazol-3-yl)thio)ethyl)-3-hydroxyazetidine-3-carboxamide] was below 100 nM; that for `CN1CCC1C(=O)NCCSc1nonc1C(=NO)Nc1ccc(F)c(C(F)F)c1` (centres unmarked) [Example 124/1, N-(2-((4-(N-(3-(Difluoromethyl)-4-fluorophenyl)-N′-hydroxycarbamimidoyl)-1,2,5-oxadiazol-3-yl)thio)ethyl)-1-methylazetidine-2-carboxamide] was below 100 nM; that for `N#CC1(C(=O)NCCSc2nonc2C(=NO)Nc2ccc(F)c(C(F)F)c2)CNC1` [Example 125, 3-Cyano-N-(2-((4-(N-(3-(difluoromethyl)-4-fluorophenyl)-N′-hydroxycarbamimidoyl)-1,2,5-oxadiazol-3-yl)thio)ethyl)azetidine-3-carboxamide] was 100 to 1000 nM.
Turning to `NC(=O)C1(C(=O)NCCSc2nonc2C(=NO)Nc2ccc(F)c(C(F)F)c2)CNC1` [Example 126], the IC50 was in the range of 100 to 1000 nM.
For `CS(=N)(=O)CC(=O)NCCSc1nonc1/C(=N/O)Nc1ccc(F)c(Br)c1` (centres unmarked) [Example 127, N-(2-((4-(N-(3-Bromo-4-fluorophenyl)-N′-hydroxycarbamimidoyl)-1,2,5-oxadiazol-3-yl)thio)ethyl)-2-(S-methylsulfonimidoyl)acetamide], the IC50 is below 100 nM.
As for `NS(=O)(=O)NCC(=O)NCCSc1nonc1/C(=N/O)Nc1ccc(F)c(C(F)F)c1` [Example 128, N-(2-((4-(N-(3-(Difluoromethyl)-4-fluorophenyl)-N′-hydroxycarbamimidoyl)-1,2,5-oxadiazol-3-yl)thio)ethyl)-2-(sulfamoylamino)acetamide], the figure is below 100 nM.
